The structures appear in SMILES notation. Bounds are passed on as bounds.

T1 sequence (P43220 24-463): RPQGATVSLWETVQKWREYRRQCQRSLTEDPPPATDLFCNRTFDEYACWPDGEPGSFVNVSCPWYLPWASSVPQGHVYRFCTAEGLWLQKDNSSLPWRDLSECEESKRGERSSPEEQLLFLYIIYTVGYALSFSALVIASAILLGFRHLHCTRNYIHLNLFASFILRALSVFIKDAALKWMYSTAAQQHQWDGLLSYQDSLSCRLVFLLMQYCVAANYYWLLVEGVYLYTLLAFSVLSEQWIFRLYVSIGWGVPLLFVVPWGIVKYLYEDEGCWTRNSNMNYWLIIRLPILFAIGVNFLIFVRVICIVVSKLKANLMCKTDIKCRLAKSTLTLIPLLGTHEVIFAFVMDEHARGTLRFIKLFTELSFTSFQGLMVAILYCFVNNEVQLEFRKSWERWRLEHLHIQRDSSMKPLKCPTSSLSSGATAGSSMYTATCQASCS
T1 sequence (P01275 100-127 partner limits assumed): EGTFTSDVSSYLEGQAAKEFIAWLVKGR

This experiment addresses T1, GLP-1R (Homo sapiens, UniProt P43220).
T1 construct: host or cells: CRE-bla CHO-K1
Nature of the experiment: EC20 GLP-1(9-36) PAM cAMP assay: dose response of compound in the presence of fixed concentration of GLP-1(9-36). The experiment is classed as cell-based. Conditions: GLP-1R CRE-bla CHO-K1 cells, compound dose response in presence of fixed concentration of GLP-1(9-36). In a few lines: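 GLP-1R CRE-bla CHO-K1 cells in HBSS/10 mM Hepes/0.1% BSA pH 7.4 with IBMX got a 12-point compound dose response plus fixed EC20 GLP-1(9-36), 30 min at 37 °C. cAMP measured by HitHunter luminescence against a standard curve; EC50 and Emax by non-linear regression.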
Background: Cyclic AMP is a second messenger, typically raised through Gs and lowered through Gi signalling.
The term EC50 denotes the midpoint of the concentration-response curve. As to `CCCCCCCOc1ccc(-c2cnc(-c3ccc(C[C@@H](NC(=O)c4ccc(C(C)(C)C)s4)C(=O)N[C@@H](C)C(=O)O)cc3)nc2)cc1` [Compound 374], the EC50 fell in the range of 800 to 2500 nM. As to `CCCCCCCOc1ccc(-c2cnc(-c3ccc(C[C@@H](NC(=O)c4ccc(C(C)(C)C)s4)C(=O)N[C@H](C)C(=O)O)cc3)nc2)cc1` [Compound 375], the EC50 was < 800 nM. Regarding `CCCCCCCOc1ccc(-c2cnc(-c3ccc(C[C@@H](NC(=O)c4ccc(C(C)(C)C)s4)C(=O)NCC(=O)O)cc3)nc2)cc1` [Compound 376], the EC50 was in the range of 800 to 2500 nM. The same measure for `CCCCCCCOc1ccc(-c2cnc(-c3ccc(C[C@@H](NC(=O)c4ccc(C(C)(C)C)s4)C(=O)N[C@@H](CCC(N)=O)C(=O)O)cc3)nc2)cc1` [Compound 377]: < 800 nM; for `CCCCCCCOc1ccc(-c2cnc(-c3ccc(C[C@@H](NC(=O)c4ccc(C(C)(C)C)s4)C(=O)N[C@@H](CO)C(=O)O)cc3)nc2)cc1` [Compound 378]: < 800 nM; for `CCCCCCCOc1ccc(-c2cnc(-c3ccc(C[C@@H](NC(=O)c4ccc(C(C)(C)C)s4)C(=O)N[C@H](CO)C(=O)O)cc3)nc2)cc1` [Compound 379]: < 800 nM. The same measure for `CCCCCCCOc1ccc(-c2cnc(-c3ccc(C[C@H](NC(=O)c4ccc(C(C)(C)C)cc4)C(=O)NCC(=O)NS(C)(=O)=O)cc3)nc2)cc1` [Compound 381, (S)-4-(tert-butyl)-N-(3-(4-(5-(4-(heptyloxy)phenyl)pyrimidin-2-yl)phenyl)-1-((2-(methylsulfonamido)-2-oxoethyl)amino)-1-oxopropan-2-yl)benzamide]: 800 to 2500 nM.

For the origin of these results see patent publication US8778923B2, “GLP-1 receptor modulators” (Receptos, Inc., priority 2011, dated 2014).
